One experiment concerns glioma. As to the kind of experiment: Soft agar assay (colony formation). Type of experiment: cell-based, human. Conditions: 0.5, 1, 2, 5, 10 mM caffeine; 14 to 17 days; dose dependent. How it is done: Cells (1×10^4) were seeded into 6-well plates in a soft agar (0.3%, Difco) overlaying a 0.6% base agar. […] Cells were incubated at 37° C. for 14 to 17 days to allow colonies to develop. Afterward colonies were stained with 0.05% cresyl violet and photographed. The group without caffeine treatment was used as a control. Each assay was done in triplicate (n=3).

Experiment [1] relates to U87MG cells. As to the kind of experiment: Xenograft tumor growth assay. Conditions: caffeine 1 mg/ml in drinking water from day 7; 4 weeks. Type of experiment: in vivo, athymic mice (Balb/c nu/nu). As to the method:
Five-week-old athymic mice (Balb/c nu/nu) were obtained from Central Lab. Animal Inc. (Japan). For the xenograft tumor growth assay, U87MG cells (3×10^5 cells/150 ul PBS) were injected subcutaneously into the right flanks of the mice (n=5 to 10 mice per group), and the experiment was conducted in triplicate. […] The control animals were given distilled water. Tumor mass was estimated twice per week for 4 weeks, and tumor volumes were calculated by the formula: […]

Experiment [2] concerns U178MG cells. The experiment is described as follows: Live imaging of cell migration. It is filed as cell-based, human. Conditions: 10 minute intervals for 9 hours.
For experiment [3], the system named is shRNA for IP3R3 expressing U178MG cells. As to the kind of experiment: Block against Ca2+ responses in U178MG cells expressing shRNA for IP3R3. It is filed as cell-based, human. As to the method: FIGS. 6d and 6e are Ca^2+ imaging result for U178MG cells, which were transfected with GFP-attached shRNA for IP3R3 via electroporation.
In experiment [4] the test system is U178MG, U87MG, U373MG, and T98G cells. The experiment is described as follows: Matrigel invasion assay. Type of experiment: cell-based, human. Conditions: 24 h; 1, 2, 5, 10 mM caffeine; dose dependent. As to the method:
The cell lines were obtained from ATCC. […] Cell invasion was assayed using transwell inserts (Corning, N.Y., USA) containing […] pore size in 24-well culture plates. For invasion assay, inserts were coated with 2 mg/ml basement membrane Matrigel (BD Bioscience, Bedford, Mass., USA). 1×10^5 cells in serum-free medium (FBS, DMEM, from GIBCO, Invitrogen, USA) were plated onto the upper side of insert and complete medium was placed in the lower chamber to act as a chemoattractant. After 24 h of incubation at 37° C., the cells on the upper side of insert were removed by wiping with a cotton swab and cells migrated to the lower side of membrane were stained with DAPI (Molecular Probes, Invitrogen, USA) and randomly photographed with microscopy at ×40 magnification. The mean number of untreated cells was considered as 100% invasion.

Experiment [5] concerns U87MG cells. The experiment is described as follows: Orthotropic implantation model, survival rate. Conditions: 1 mg/ml caffeine containing drinking water.
For another experiment, the system named is U178MG glioma cells. The experiment is described as follows: Invasion of U178MG glioma cells in organotypic hippocampal slice cultures (OHSCs). Conditions: 1, 2, 5, 10 mM caffeine; 120 hours vs 1 hour; proportional to concentration. Type of experiment: cell-based, human.
The test system of experiment [6] is U178MG cells. As to the kind of experiment: Dependence of caffeine action on store-operated channels or store depletion. It is filed as cell-based, human. Conditions: 10 mM caffeine; thapsigargin 1 μM, cyclopiazonic acid 20 μM. As to the method:
Firstly, 1 μM thapsigargin was applied for 2 min in Ca^2+ free HEPES buffer. After depletion of Ca^2+ from endoplasmic reticulum, extra solution was changed to 2 mM Ca^2+HEPES buffer.

For experiment [7], the system named is U178MG cells. The experiment is described as follows: Ca2+ imaging: block against agonist-induced intracellular Ca2+ release in U178MG cells. It is filed as cell-based, human. Conditions: for TFLLR induced Ca2+ release: 10 mM compound; for pIC50: Homo sapiens, U178MG cells. How it is done:
100 seconds after the treatment, the cells were divided into two separate groups, each being stimulated with GPCR (G-protein coupled receptors) agonists, i.e., […] or 10 μM bradykinin, respectively. […] The measurement of Ca^2+ concentration through the measurement of inward current was conducted as described in ‘Justin Lee, et al., The Journal of Physiology, Astrocytic control of synaptic NMDA receptor, 2007’, which is hereby incorporated by reference for all purposes as if fully set forth herein.
After 100 seconds, the cells were stimulated with 30 μM TFLLR.
Error bars indicate SEM. […] Such substance may include: iso-propyl theophylline, 7-(β-3-hydroxyethyl)theophylline, xanthine, theophylline, and 1,7-dimethyl-3-isobutyl xanthine.

In experiment [8] the test system is GBM, U178MG, T98G, U87MG and HEK293. The experiment is described as follows: Block against GPCR agonist-induced intracellular Ca2+ release in various cell types. Type of experiment: cell-based, human. Conditions: 10 mM caffeine. How it is done: The cell lines were obtained from Department of Neurosurgery, Seoul National University College of Medicine (GBM), Emory Uni. ([…]) and ATCC (T98G, U87MG, and HEK293), respectively. […] Error bars are mean±SEM.

The subject of experiment [9] is U178MG, U87MG, wtEGFR, and ΔEGRF cells. The experiment is described as follows: Scrape motility assay. It is filed as cell-based, human. Conditions: 24 hours; 10 mM caffeine, 1 μM thapsigargin, 10 μM 2-APB, 20 μM CPA, 50 μM BAPTA-AM, 10 μM ryanodine. As to the method:
The cell lines were obtained from Emory Uni (U178MG) and ATCC (U87MG, T98G, and M59K). All cell lines were grown as monolayers in 12-well culture plates in serum-containing media (Emory Uni). […] To prevent proliferation, fluorodeoxyuridine (FdU/U; Sigma) was added. After incubation for 24 hours, the cells were fixed in 4% paraformaldehyde. The area of repopulation of three 10× fields within the scrape areas were determined and the mean percentage of scrape area to wound closure was determined.

pIC50: −log10 of the molar value. “Also recorded” adds a separate entry of the source. Read-outs that look alike come from different tables or passages of the source.

Broadly, the pIC50 is −log10 of the IC50, conventionally taken in molar units. For `Cn1c(=O)c2c(ncn2C)n(C)c1=O` [caffeine], the “proliferation / anchorage-independent growth (colonies)” value in the experiment on glioma was “reduced the anchorage-independent growth; also recorded: significantly inhibited”. For the same molecule, the “increase of tumor mass” value with U87MG cells [1] was “significantly inhibited”. Besides, in the experiment on U178MG cells [2], the “migration of U178MG cells” value is listed as “significantly slowed down”. Besides, the “block against Ca2+ responses, IP3R3 silenced by shRNA” value in experiment [3] was 20%. In [4], the “invasion through Matrigel” value is “reduced the invasion rate; also recorded: significantly inhibited”. The survival rate entry in the experiment with U87MG cells [5] is “significantly increase the survival rate”. Moreover, in the experiment on U178MG glioma cells, the “invasion area of DiI-stained cells” value is given as “invasion area was reduced”. Moreover, in the experiment on U178MG cells [6], the “cause of Ca2+ block (store depletion, store-operated channels)” value was “not due to Ca^2+ depletion or block of Ca^2+ flow through TRPC”. Further, the “increase of [Ca2+]i after stimulation with EGF or bradykinin” value with U178MG cells [7] (10 mM caffeine, 100 ng/ml EGF or 10 μM bradykinin) is listed as “no significant increase”. Also, in the experiment on U178MG cells [7] (30 μM TFLLR), the “TFLLR induced Ca2+ release” value was “inhibited”. Further, the “increase of TFLLR-induced intracellular Ca2+ concentration” value in the experiment on U178MG cells [7] (0.3, 3, 10, 30 mM caffeine, 30 μM TFLLR, concentration dependent) is on record as “inhibits the increase”. Further, the pIC50 in the experiment with U178MG cells [7] (EGF 100 ng/ml, read-out: IC50, Ca2+ release evoked by EGF) was 2.73. Besides, the pIC50 with U178MG cells [7] (TFLLR 30 μM, read-out: IC50, Ca2+ release evoked by TFLLR) is 2.61. For the same molecule, in experiment [8], the “GPCR-induced intracellular Ca2+ release in GBM, U178MG, T98G, U87MG and HEK293” value is on record as “inhibited”; the “degree of inhibition of Ca2+ responses, U178MG cells compared with other cell types” value is given as “highest blocking effect”. For the same molecule, in [8] (10 μM bradykinin), the “intracellular Ca2+ release” value was “blocked”. Also, the “intracellular Ca2+ release / Ca2+ responses, HEK293T cell line” value in [8] (30 μM TFLLR) is “blocked; also recorded: lowest blocking effect”.

As to `O=c1[nH]c(=O)c2[nH]cnc2[nH]1` [xanthine], in the experiment on U178MG cells [7] (caffeine analogs, FIG. 10c), the “blocking effect on IP3R3 mediated-Ca2+ response” value is recorded as “excellent selective blocking effect”.

In the case of `C/C=C(/C)C(=O)O[C@H]1C(C)=C2[C@H]([C@@H]1OC(=O)CCCCCCC)[C@@](C)(OC(C)=O)C[C@H](OC(=O)CCC)[C@@]1(O)[C@H]2OC(=O)[C@@]1(C)O` [thapsigargin], the “subsequent induction increase in [Ca2+]i by bradykinin after store depletion” value in the experiment with U178MG cells [7] (store depletion by thapsigargin) is given as “completely inhibited”. Also, the “motility (wound closure by cell migration)” value (shortened to “motility”) in [9] was “mimicked”.

On to ryanodine, for which the “motility” value in experiment [9] is recorded as “did not show any cell migration as such”.

`CC(C)n1cnc2c1c(=O)n(C)c(=O)n2C` [iso-propyl theophylline]: in the experiment with U178MG cells [7] (caffeine analogs, FIG. 10c), the “blocking effect against Ca2+ release (% block)” value is reported as “some degree of blocking effects” and the “blocking effect on IP3R3 mediated-Ca2+ response” value was “excellent selective blocking effect”.

For the molecule `CCn1cnc2c1c(=O)n(C)c(=O)n2C` [7-ethyl theophylline], the “TFLLR induced Ca2+ release” value in the experiment on U178MG cells [7] (30 μM TFLLR) is “no inhibition”.

As for `CC(C)Cn1c(=O)n(C)c(=O)c2c1ncn2C` [1,7-dimethyl-3-isobutyl xanthine], the “blocking effect on IP3R3 mediated-Ca2+ response” value with U178MG cells [7] (caffeine analogs, FIG. 10c) is listed as “excellent selective blocking effect”.

Take `COc1ccc2c(c1)CC[C@@H]1[C@@H]2CC[C@]2(C)[C@@H](NCCCCCCN3C(=O)C=CC3=O)CC[C@@H]12` [U73122]: in the experiment with U178MG cells [7] (GBM cells), the “release of Ca2+ from intracellular stores in response to activation of GPCRs and RTKs” value is listed as “completely inhibited”.

On to `Cn1c(=O)c2[nH]cnc2n(C)c1=O` [theophylline], for which the “blocking effect on IP3R3 mediated-Ca2+ response” value in the experiment on U178MG cells [7] (caffeine analogs, FIG. 10c) was “excellent selective blocking effect”.

As to `NCCOB(c1ccccc1)c1ccccc1` [2-APB], the “motility” value in experiment [9] is reported as “mimicked”.

On to `Cn1c(=O)c2c(ncn2CCO)n(C)c1=O` [7-(β-3-hydroxyethyl)theophylline], for which the “blocking effect on IP3R3 mediated-Ca2+ response” value in the experiment on U178MG cells [7] (caffeine analogs, FIG. 10c) is recorded as “excellent selective blocking effect”.

On to `CC(=O)OCOC(=O)CN(CC(=O)OCOC(C)=O)c1ccccc1OCCOc1ccccc1N(CC(=O)OCOC(C)=O)CC(=O)OCOC(C)=O` [BAPTA-AM], for which the “motility” value in experiment [9] is recorded as “mimicked”.

These data come from US20110039869A1, “COMPOSITION FOR INHIBITING THE ACTIVITY OF INOSITOL 1,4,5-TRIPHOSPHATE RECEPTOR SUBTYPE III” (Korea Institute of Science and Technology, priority 2008, published 2011).
